Reference: patent US11331290B2, “Niclosamide for the treatment of cancer metastasis” (Max-Delbrück-Centrum für Molekulare Medizin in der …, priority 2011, dated 2022)

Legend:
Format in all cases: cell-based, human
SW620 cells = assay: Soft agar colony formation assay; details: 1 μM, 7 days
Method: (§1) Analysis of anchorage-independent cell proliferation was achieved by soft agar colony formation assay. A bottom layer containing 0.5% w/v agarose, RPMI-1640 medium, 10% FBS and 1 μM niclosamide or the respective amount of DMSO was added to a 6 cm Ø dish and incubated at room temperature under sterile conditions for 10 minutes. Onto the solidified bottom layer a top layer was added containing 8×10^3 cells, 0.33% w/v agarose, RPMI-1640 medium, 10% FBS and 1 μM niclosamide or the respective amount of DMSO. Cells were seeded as single cells into the soft agar and incubated in a humidified incubator at 37° C. and 5% CO2 for 7 days. Colony formation was visualized by 10× magnification for an overview and 40× magnification for single colonies in the Leica DM IL light microscope (Leica Microsystems). Colony quantification was achieved by counting cell colonies of more than 4 cells in 10 squares of […]. Colony formation experiments were repeated twice, each in triplicates.
(§2) (A) S100A4 expression under niclosamide treatment. Cells were treated with 1 μM niclosamide for 24 hours. S100A4 expression was analyzed with qRT-PCR and immunoblot. (B) Cell migration under niclosamide treatment. Migration rates of cells treated with 1 μM niclosamide for 24 hours were determined in a Boyden chamber assay values were normalized to solvent-treated SW620 cells. (C) Cell invasion under niclosamide treatment. Cells were seeded onto Matrigel covered transwells and treated with 1 μM niclosamide for 24 hours. Invaded cells in the lower chamber were counted and normalized to solvent-treated SW620 cells. Differences in solvent vs. niclosamide-treated cells were analyzed by Student's t test. Data represent mean±SE of at least two independent experiments each performed in triplicate. (D) Directed migration under niclosamide treatment. Wounds of 300 μM width were set in a 60% confluent monolayer of cells on day 1. Cells were treated daily with 1 μM niclosamide for 4 days. Microphotographs of day 4 are presented here with black lines indicating margins of the wound on day 1; scale bar represents 200 μM. Directed migration data shown are representatives of three independent experiments. (E) Adhesive cell proliferation under niclosamide treatment. Cells were treated daily with 1 μM niclosamide. The amount of viable cells per well was determined by MTT assay. (F) Anchorage-independent cell growth under niclosamide treatment. Cells were plated as single cells into 0.33% (w/v) agarose and treatment (solvent or 1 μM niclosamide) containing medium. After 7 days colonies were visualized by light microscopy at 10× (overview) and 40× (single colony) magnification. (G) Quantification of colonies formed. Number of colonies (of more than 4 cells) was counted and normalized to solvent-treated SW620 cells. Differences in solvent vs. niclosamide-treated cells were analyzed by Student's t test. Data represent mean mean±SE of at least two independent experiments each performed in duplicates.

DLD-1 cells = assay: Soft agar colony formation assay; details: 1 μM, 7 days
Method: as §1, §2

SW480 cells = assay: Soft agar colony formation assay; details: 1 μM, 7 days
Method: as §1, §2

S100A4 protein = S100A4 protein expression by immunoblot; details: for S100A4 protein expression: 1 μM
Method: For total protein extraction cells were lysed with RIPA buffer (50 mM Tris-HCl, 150 mM NaCl, 1% Nonidet P-40, supplemented with complete protease inhibitor tablets; Roche) for 30 minutes on ice. For isolation of the nuclear protein fraction, the NE-PER Nuclear and Cytoplasmic Extraction Kit (Pierce) was used according to the manufacturer's instructions. Protein concentration was quantified with Bicinchoninic Acid (BCA) Protein Assay Reagent (Pierce) according to manufacturer's instructions and lysates of equal protein concentration were separated with SDS-PAGE and transferred to Hybond C Extra nitrocellulose membrane (Amersham Biosciences). Membranes were incubated in blocking solution containing 5% nonfat dry milk and 1% bovine serum albumin (BSA) for 1 hour at room temperature. Membranes were incubated overnight at 4° C. with rabbit anti-human-S100A4 antibody (dilution, 1:1500), mouse anti-human-CTNNB1 antibody (dilution, 1:1000), mouse anti-human TUBB1 antibody (dilution, 1:1000), goat anti-human GAPDH antibody (dilution, 1:500) or mouse anti-human PCNA antibody (dilution, 1:1000) followed by incubation for 1 hour at room temperature with HRP-conjugated anti-goat (dilution, 1:10000), anti-rabbit (dilution, 1:10000), anti-mouse IgG (dilution, 1:10000) or anti-mouse IgM (dilution, 1:10000) antibody. Antibody-protein-complexes were visualized with electrochemical-luminescence (ECL) reagent (100 mM Tris-HCl, 0.025% w/v luminol, 0.011% w/v para-hydroxycoumaric acid, 10% v/v dimethylsulfoxide, 0.004% v/v H2O2, pH 8.6) and subsequent exposure to CL-XPosure™ Films (Pierce) for 1 second to 20 minutes. Immunoblotting for GAPDH and PCNA served as protein loading control. Immunoblotting for β-tubulin was used to control that nuclear extracts were free from cytoplasmatic protein. All experiments were performed at least three independent times.
(A) Determination of the cytotoxicity of niclosamide on HCT116 cells. Cells were treated with increasing concentrations of niclosamide for 24 hours and cell viability was measured. (B) Effect of increasing concentrations of niclosamide on S100A4 expression. HCT116 cells were treated with increasing concentrations of niclosamide for 24 hours. S100A4 expression was determined by quantitative reverse-transcription-polymerase chain reaction (qRT-PCR) and immunoblot. (C) Time-dependency of niclosamide effect on S100A4 expression. HCT116 cells were treated with a single dose of 1 μM niclosamide for 24 hours and S100A4 expression was analyzed by qRT-PCR and immunoblot at indicated time points. Black bar indicates the chosen treatment conditions for further experiments. (D) Effect of daily doses of niclosamide on S100A4 expression. HCT116 cells were treated daily with 1 μM niclosamide and S100A4 expression was analyzed by qRT-PCR and immunoblot. Data is given as mean±SD (n>2). Differences in treated groups were compared with the control group by two-sided one-way analysis of variances and Bonferroni post hoc multiple comparison test.
(E) Effect of niclosamide in HCT116-vector and HCT116-S100A4 cells. HCT116-vector and HCT116-S100A4 cells were treated with 1 μM niclosamide for 24 hours and S100A4 expression was analyzed by qRT-PCR and immunoblot. Data is given as mean±SD (n>2). Comparison of niclosamide vs. solvent-treated cells was analyzed with Student's t test.
(A) S100A4 expression under niclosamide treatment. Cells were treated with 1 μM niclosamide for 24 hours. S100A4 expression was analyzed with qRT-PCR and immunoblot. (B) Cell migration under niclosamide treatment. Migration rates of cells treated with 1 μM niclosamide for 24 hours were determined in a Boyden chamber assay values were normalized to solvent-treated SW620 cells. (C) Cell invasion under niclosamide treatment. Cells were seeded onto Matrigel covered transwells and treated with 1 μM niclosamide for 24 hours. Invaded cells in the lower chamber were counted and normalized to solvent-treated SW620 cells. […]

## O=C(Nc1ccc([N+](=O)[O-])cc1Cl)c1cc(Cl)ccc1O [niclosamide, 2′,5-dichloro-4′-nitrosalicylanilide]
SW620 cells
  anchorage-independent growth, colony size: clearly smaller cell colonies
  number of colonies, mean difference control vs niclosamide: 96.4%
SW620 cells; solvent control 100.0%
  number of colonies, mean % (normalized to solvent-treated SW620 cells): 3.6%
DLD-1 cells
  anchorage-independent growth, colony size: clearly smaller cell colonies
  number of colonies, mean difference control vs niclosamide: 72.5%
DLD-1 cells; solvent control 82.6%
  number of colonies, mean % (normalized to solvent-treated SW620 cells): 10.1%
SW480 cells
  anchorage-independent growth, colony size: clearly smaller cell colonies
  number of colonies, mean difference control vs niclosamide: 63.8%
SW480 cells; solvent control 68.1%
  number of colonies, mean % (normalized to solvent-treated SW620 cells): 4.3%
S100A4 protein; DLD-1 cells, 24 h (solvent and niclosamide-treated)
  S100A4 protein expression: no S100A4 protein was detected
S100A4 protein; HCT116, 0.1 μM to 2.5 μM, 24 h
  S100A4 protein level: reduced in a concentration-dependent manner
S100A4 protein; HCT116, 1 μM daily
  S100A4 protein level, % of solvent-treated control cells: approximately 50%
S100A4 protein; HCT116, three days following discontinuation of niclosamide treatment
  S100A4 protein: clearly reduced
S100A4 protein; HCT116-S100A4, 1 μM, 24 h
  S100A4 protein level: no reduction
S100A4 protein; Homo sapiens, HCT-116, HCT116, 1 μM, single dose, 24 hours, read-out: S100A4 protein level, % of control
  activity at 1 µM: < 50%
S100A4 protein; SW620, LS174T and SW480 cells, 24 h
  S100A4 protein expression: reduced
